Reference: patent publication US4250170A, “Antibacterial agents Bu-2349A and B and method of using same” (Bristol-Myers Company, priority 1979, dated 1981)
≈ marks a conversion by molar mass, not a printed value.

Assays:
[1] = test system: Streptococcus pyogenes (Sp-3); assay: MIC, two-fold agar dilution; type: cell-based; conditions: 18 h, Table 3, GC agar, 10^-2 dilution
solubility = type: physicochemical; conditions: hydrochloride salt
Proteus rettgeri (Pr-2) = assay: MIC, two-fold agar dilution; type: cell-based; conditions: Providencia rettgeri, 18 h; Table 3; Mueller-Hinton agar, 10^-4 dilution
Proteus mirabilis (Pm-1) = assay: MIC, two-fold agar dilution; type: cell-based; conditions: Proteus mirabilis, 18 h, Table 3; Mueller-Hinton agar, 10^-4 dilution; read-out: MIC
Procedure: (§1) The minimum inhibitory concentrations (MIC) of Bu-2349A and B were determined against a wide variety of bacteria by the two-fold agar dilution method. Mueller-Hinton agar medium was generally used for the determination of bacterial MIC except for species of Streptococcus, Neisseria and Hemophilus for which Gonococcus agar medium (GC agar, Nissui Co., Tokyo) was used. Gifu anaerobe agar medium (GAM agar, Eiken Co., Tokyo) was used for anaerobic bacteria. The MIC's were determined after overnight incubation at 37° C. with an initial inoculum equivalent to a 10^-4 dilution of an 18-hour culture for the aerobic and anaerobic bacteria, except for Streptococcus, Neisseria and Hemophilus for which a 10^-2 dilution was used.
(§2) The influence of inoculum size on MIC was tested on Mueller-Hinton agar using an inoculum of […], 10^-2 or 10^-4 dilution of the overnight culture of test organisms.
(§3) The effect of media pH on the MIC's of Bu-2349A was determined at three pH levels (6, 7 and 8) using Mueller-Hinton agar.
(§4) The media effect on the MIC's of Bu-2349A was tested using four kinds of assay media: Mueller-Hinton agar (MHA), nutrient agar (NA), heart infusion agar (HIA) and brain heart infusion agar (BHIA). The pH was adjusted at 7 and a 10^-4 dilution of overnight culture was used for the inoculum.

Proteus morganii (Pg-1) = assay: MIC, two-fold agar dilution; type: cell-based; conditions: Morganella morganii, 18 h, Table 3; Mueller-Hinton agar, 10^-4 dilution
Procedure: as §1, §2, §3, §4

[2] = test system: Escherichia coli Juhl (Ec-3); assay: MIC, two-fold agar dilution; type: cell-based; conditions: 18 h, Table 3, Mueller-Hinton agar, 10^-4 dilution
Procedure: as §1, §2, §3, §4

[3] = test system: Staphylococcus aureus 209P (Sa-1); assay: MIC, two-fold agar dilution; type: cell-based; conditions: 18 h, Table 3, Mueller-Hinton agar, 10^-4 dilution
Procedure: as §1, §2, §3, §4

[4] = test system: Klebsiella pneumoniae (Kp-2); assay: MIC, two-fold agar dilution; type: cell-based; conditions: 18 h, Table 3, Mueller-Hinton agar, 10^-4 dilution, read-out: MIC
Procedure: as §1, §2, §3, §4

[5] = test system: Bacillus subtilis PCI 219 (Bs-1); assay: MIC, two-fold agar dilution; type: cell-based; conditions: 18 h, Table 3, Mueller-Hinton agar, 10^-4 dilution
Procedure: as §1, §2, §3, §4

[6] = test system: Escherichia coli ML-1630 (Ec-5), APH(3')-1; assay: MIC, two-fold agar dilution; type: cell-based; conditions: 18 h, Table 3, Mueller-Hinton agar, 10^-4 dilution, enzyme APH(3')-1
Procedure: as §1, §2, §3, §4

[7] = test system: Pseudomonas aeruginosa (Pa-3); assay: MIC, two-fold agar dilution; type: cell-based; conditions: 18 h, Table 3, Mueller-Hinton agar, 10^-4 dilution
Procedure: as §1, §2, §3, §4

[8] = test system: Streptococcus viridans (Sv-1); assay: MIC, two-fold agar dilution; type: cell-based; conditions: 18 h, Table 3, GC agar, 10^-2 dilution
[9] = test system: Neisseria gonorrhoeae (Ng-1); assay: MIC, two-fold agar dilution; type: cell-based; conditions: 18 h, Table 3, GC agar, 10^-2 dilution
[10] = test system: Klebsiella pneumoniae (Kp-33), AAC(3)-3; assay: MIC, two-fold agar dilution; type: cell-based; conditions: 18 h, Table 3, Mueller-Hinton agar, 10^-4 dilution, enzyme AAC(3)-3
[11] = test system: Streptococcus pneumoniae (Dp-4); assay: MIC, two-fold agar dilution; type: cell-based; conditions: 18 h, Table 3, GC agar, 10^-2 dilution
[12] = test system: Hemophylus influenzae (He-2); assay: MIC, two-fold agar dilution; type: cell-based; conditions: 18 h; Table 3; GC agar, 10^-2 dilution
[13] = test system: gram-positive and gram-negative bacteria; assay: in vitro antibacterial activity, overall statements; type: cell-based
Procedure: as §1, §2, §3, §4

[14] = test system: Escherichia coli (Ec-72), ANT(2"); assay: MIC, two-fold agar dilution; type: cell-based; conditions: 18 h, Table 3, Mueller-Hinton agar, 10^-4 dilution, enzyme ANT(2")
[15] = test system: Enterobacter cloacae (El-35), AAC(3)-3; assay: MIC, two-fold agar dilution; type: cell-based; conditions: 18 h, Table 3, Mueller-Hinton agar, 10^-4 dilution, enzyme AAC(3)-3
[16] = test system: Serratia marcescens (Sm-2); assay: MIC, two-fold agar dilution; type: cell-based; conditions: 18 h, Table 3, Mueller-Hinton agar, 10^-4 dilution
[17] = test system: Escherichia coli (Ec-9), AAC(6')-1; assay: MIC, two-fold agar dilution; type: cell-based; conditions: 18 h, Table 3, Mueller-Hinton agar, 10^-4 dilution, enzyme AAC(6')-1
[18] = test system: Escherichia coli (Ec-49), APH(3')-2; assay: MIC, two-fold agar dilution; type: cell-based; conditions: 18 h, Table 3, Mueller-Hinton agar, 10^-4 dilution, enzyme APH(3')-2
[19] = test system: Staphylococcus epidermidis (Si-2), ANT (4'); assay: MIC, two-fold agar dilution; type: cell-based; conditions: 18 h, Table 3, Mueller-Hinton agar, 10^-4 dilution, enzyme ANT (4')
[20] = test system: Staphylococcus aureus Smith (Sa-2); assay: MIC, two-fold agar dilution; type: cell-based; conditions: 18 h, Table 3, Mueller-Hinton agar, 10^-4 dilution
[21] = test system: Escherichia coli (Ec-62), AAC(3)- 1; assay: MIC, two-fold agar dilution; type: cell-based; conditions: 18 h, Table 3, Mueller-Hinton agar, 10^-4 dilution, enzyme AAC(3)- 1
[22] = test system: Proteus stuartii (Ps-2), AAC(2'); assay: MIC, two-fold agar dilution; type: cell-based; conditions: 18 h; Table 3; Mueller-Hinton agar, 10^-4 dilution; enzyme AAC(2')
[23] = test system: Staphylococcus aureus Terajima (Sa-33); assay: MIC, two-fold agar dilution; type: cell-based; conditions: 18 h, Table 3, Mueller-Hinton agar, 10^-4 dilution
Mycobacterium 607 (M6-1) = assay: MIC, two-fold agar dilution; type: cell-based; conditions: 18 h, Table 3, Mueller-Hinton agar, 10^-4 dilution
Proteus vulgaris (Pv-1) = assay: MIC, two-fold agar dilution; type: cell-based; conditions: 18 h, Table 3, Mueller-Hinton agar, 10^-4 dilution
[24] = test system: Mycobacterium phlei D88 (Mp-1); assay: MIC, two-fold agar dilution; type: cell-based; conditions: Mycolicibacterium phlei, 18 h; Table 3; Mueller-Hinton agar, 10^-4 dilution
[25] = test system: Escherichia coli NIHJ (Ec-1); assay: MIC, two-fold agar dilution; type: cell-based; conditions: 18 h, Table 3, Mueller-Hinton agar, 10^-4 dilution
[26] = test system: Staphylococcus aureus (Sa-77), ANT(4'); assay: MIC, two-fold agar dilution; type: cell-based; conditions: 18 h
[27] = test system: Mycobacterium ranae ATCC 110 (Mr-1); assay: MIC, two-fold agar dilution; type: cell-based; conditions: ATCC110, 18 h, Table 3, Mueller-Hinton agar, 10^-4 dilution
[28] = test system: Neisseria meningitidis (Nm-1); assay: MIC, two-fold agar dilution; type: cell-based; conditions: 18 h, Table 3, GC agar, 10^-2 dilution

SMILES: C=C1OC(OC2C(CO)OC(Oc3ccc(C(=O)NCCCNCCCCN)cc3)C2O)C(O)C(OC2OC(CO)C(OC3OC(C)C(N)C(O)C3NC(=O)C(C)N)C(O)C2O)C1O (stereo not shown) [Bu-2349B]
- MIC [1]: > 100 µg/mL
- solubility in methanol, ethanol, dimethylsulfoxide and dimethylformamide (solubility; methanol, ethanol, dimethylsulfoxide and dimethylformamide): slightly soluble
- solubility in other common organic solvents (solubility; other common organic solvents): practically insoluble
- solubility in water (solubility; water): soluble
- MIC (Proteus rettgeri (Pr-2)): 3.1 µg/mL (≈ 3.37 µM)
- MIC (Proteus mirabilis (Pm-1)): 25 µg/mL (≈ 27.2 µM)
- MIC (Proteus morganii (Pg-1)): 100 µg/mL (≈ 109 µM)
- MIC [2]: 6.3 µg/mL (≈ 6.86 µM)
- MIC [3]: 12.5 µg/mL (≈ 13.6 µM)
- MIC [4]: 12.5 µg/mL (≈ 13.6 µM)
- MIC [5]: 25 µg/mL (≈ 27.2 µM)
- MIC [6]: 6.3 µg/mL (≈ 6.86 µM)
- MIC [7]: 100 µg/mL (≈ 109 µM)
- MIC [8]: > 100 µg/mL
- MIC [9]: > 100 µg/mL
- MIC [10]: 12.5 µg/mL (≈ 13.6 µM)
- MIC [11]: > 100 µg/mL
- MIC [12]: > 100 µg/mL
- inhibitory activity both in vitro and in vivo ([13]; gram-positive and gram-negative bacteria, including aminoglycoside-resistant bacteria, summary statement): marked inhibitory activity
- antibacterial activity ([13]; including bacteria which produce aminoglycoside-modifying enzymes): active
- MIC [14]: 6.3 µg/mL (≈ 6.86 µM)
- MIC [15]: 12.5 µg/mL (≈ 13.6 µM)
- MIC [16]: 50 µg/mL (≈ 54.4 µM)
- MIC [17]: 0.8 µg/mL (≈ 0.871 µM)
- MIC [18]: 3.1 µg/mL (≈ 3.37 µM)
- MIC [19]: 25 µg/mL (≈ 27.2 µM)
- MIC [20]: 12.5 µg/mL (≈ 13.6 µM)
- MIC [21]: 12.5 µg/mL (≈ 13.6 µM)
- MIC [22]: 1.6 µg/mL (≈ 1.74 µM)
- MIC [23]: 6.3 µg/mL (≈ 6.86 µM)
- MIC (Mycobacterium 607 (M6-1)): 12.5 µg/mL (≈ 13.6 µM)
- MIC (Proteus vulgaris (Pv-1)): 6.3 µg/mL (≈ 6.86 µM)
- MIC [24]: 25 µg/mL (≈ 27.2 µM)
- MIC [25]: 3.1 µg/mL (≈ 3.37 µM)
- MIC [26]: 50 µg/mL (≈ 54.4 µM)
- MIC [27]: 25 µg/mL (≈ 27.2 µM)
- MIC [28]: > 100 µg/mL
